Source: ChEMBL document CHEMBL1145266, “Design, synthesis, and biological activity of potent and selective inhibitors of mast cell tryptase” (Bioorg Med Chem Lett, 2005)

Experiments:
Tryptase beta-1 [1] = target: T1, Tryptase beta-1 (Homo sapiens, UniProt Q15661); experiment: In vitro inhibitory activity against tryptase
[2] = Bioavailability in rat (combiPK assay) (dose 2 mg/kg p.o.); assay type: ADME, organism-based; settings: in vivo, po
[3] = Bioavailability in rat using combiPK assay (dose 1 mg/kg i.v.); assay type: ADME, organism-based; settings: in vivo, iv
[4] = Bioavailability using combiPK assay in rats at a dose of 2 mg/kg administered orally; assay type: ADME, organism-based; settings: rat, in vivo, po, read-out: Bioavailabiility
[5] = Bioavailability in rat using combiPK (dose 1 mg/kg i.v.); assay type: ADME, organism-based; settings: in vivo, iv
[6] = Bioavailability using combiPK assay in rats at a dose of 1 mg/kg administered intravenously; assay type: ADME, organism-based; settings: rat, in vivo, iv, read-out: Bioavailabiility
[7] = Bioavailability in rat using combiPK (dose of 2 mg/kg p.o.); assay type: ADME, organism-based; settings: in vivo, po
[8] = Inhibitory concentration against Trypsin was determined
Tryptase beta-1 [9] = target: T1, Tryptase beta-1; experiment: Inhibition concentration against beta tryptase was determined
[10] = Inhibitory concentration against Thrombin was determined
[11] = Inhibitory concentration against Factor Xa was determined
Tryptase beta-1 [12] = target: T1, Tryptase beta-1; experiment: Inhibitory concentration against alpha tryptase was determined
[13] = Inhibitory concentration against Chymase was determined

T1 sequence (Q15661 whole entry): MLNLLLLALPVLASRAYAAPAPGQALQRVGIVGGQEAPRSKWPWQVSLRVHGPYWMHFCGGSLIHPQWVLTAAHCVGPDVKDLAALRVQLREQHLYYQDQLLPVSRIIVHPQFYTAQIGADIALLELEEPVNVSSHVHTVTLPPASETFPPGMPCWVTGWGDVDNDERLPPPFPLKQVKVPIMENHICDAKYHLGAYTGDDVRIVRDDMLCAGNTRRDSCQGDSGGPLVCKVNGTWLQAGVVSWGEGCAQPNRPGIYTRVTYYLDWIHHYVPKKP

Structure (SMILES) | Ki (Tryptase beta-1 [1]) [nM] | other results
NCc1cccc(C2CCN(C(=O)c3cn(CC4CC4)c4ccccc34)CC2)c1 | 141 | –
CCCn1cc(C(=O)N2CCC(c3cccc(CN)c3)CC2)c2cccc(C)c21 | 41 | –
NCc1cccc(C2CCN(C(=O)c3cn(C(=O)c4cccs4)c4ccccc34)CC2)c1 | 246 | –
CC(C)n1cc(C(=O)N2CCC(c3cccc(CN)c3)CC2)c2ccccc21 | 310 | –
NCc1cccc(C2CCN(C(=O)c3cn(-c4cccnc4)c4ccccc34)CC2)c1 | 197 | –
NCc1cccc(C2CCN(C(=O)c3cn(CC4CCCCC4)c4ccccc34)CC2)c1 | 497 | –
NCc1cccc(C2CCN(C(=O)c3c[nH]c4c(F)cccc34)CC2)c1 | 368 | –
Cc1ccc2c(C(=O)N3CCC(c4cccc(CN)c4)CC3)c[nH]c2c1 | > 2000 | –
CC(C)Cn1cc(C(=O)N2CCC(c3cccc(CN)c3)CC2)c2ccccc21 | 116 | –
CCCn1cc(C(=O)N2CCC(c3cccc(CN)c3)CC2)c2ccccc21 | 185 | –
CCn1cc(C(=O)N2CCC(c3cccc(CN)c3)CC2)c2ccccc21.O=C(O)C(F)(F)F | 124 | bioavailability [2]: 11%; bioavailability [3]: 11%
COCCn1cc(C(=O)N2CCC(c3cccc(CN)c3)CC2)c2ccccc21 | 57 | –
CCCCn1cc(C(=O)N2CCC(c3cccc(CN)c3)CC2)c2ccccc21.O=C(O)C(F)(F)F | 49 | bioavailability [2]: 9.3%; bioavailability [3]: 9.3%
CS(=O)(=O)n1cc(C(=O)N2CCC(c3cccc(CN)c3)CC2)c2ccccc21 | 162 | –
Cc1cccc2[nH]cc(C(=O)N3CCC(c4cccc(CN)c4)CC3)c12 | > 2000 | –
NCc1cccc(C2CCN(C(=O)c3cn(-c4nccs4)c4ccccc34)CC2)c1 | 373 | –
NCc1cccc(C2CCN(C(=O)c3c[nH]c4ccccc34)CC2)c1.O=C(O)C(F)(F)F | 290 | bioavailability [4]: 22%; bioavailability [5]: 22%
Cc1cccc2c(C(=O)N3CCC(c4cccc(CN)c4)CC3)c[nH]c12.O=C(O)C(F)(F)F | 61 | bioavailability [6]: 19%; bioavailability [7]: 19%
CCCCn1cc(C(=O)N2CCC(c3cccc(CN)c3)CC2)c2cccc(C)c21.O=C(O)C(F)(F)F | 68 | IC50 [8]: > 10000 nM; IC50 (Tryptase beta-1 [9]): 68 nM; IC50 [10]: > 10000 nM; IC50 [11]: > 10000 nM; IC50 (Tryptase beta-1 [12]): 3690 nM; IC50 [13]: > 10000 nM; bioavailability [3]: 33%
Cn1cc(C(=O)N2CCC(c3cccc(CN)c3)CC2)c2ccccc21 | 155 | –
CC(=O)n1cc(C(=O)N2CCC(c3cccc(CN)c3)CC2)c2ccccc21 | 240 | –
NCc1cccc(C2CCN(C(=O)c3cn(S(=O)(=O)c4ccccc4)c4ccccc34)CC2)c1.O=C(O)C(F)(F)F | 128 | bioavailability [5]: 17%; bioavailability [7]: 17%
Cc1ccc2[nH]cc(C(=O)N3CCC(c4cccc(CN)c4)CC3)c2c1 | 101 | –
CCn1cc(C(=O)N2CCC(c3cccc(CN)c3)CC2)c2cccc(C)c21.O=C(O)C(F)(F)F | 41 | bioavailability [2]: 26%; bioavailability [3]: 26%
COCCn1cc(C(=O)N2CCC(c3cccc(CN)c3)CC2)c2cccc(C)c21 | 32 | –
CCCCCCn1cc(C(=O)N2CCC(c3cccc(CN)c3)CC2)c2ccccc21 | 125 | –
